Experiments:
Assay in all cases: relative viability (nuclei count vs DMSO), 5 days (fraction); higher = more cells survive
[1] = test system: NCI-H358
Outline: (§1)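 Dosing by pin tool came one day after lung cancer cell lines were seeded in 1536-well plates, using either one drug or a fixed anchor-drug dose plus five library-drug doses (not always all listed) in √10 steps. After 5 days, nuclei were counted on 4× images. Relative viability is treated-well nuclei count divided by vehicle-well nuclei count, and values are medians of duplicate plates.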

[2] = test system: NCI-H650
Outline: as §1

[3] = test system: UMC-11
Outline: as §1

[4] = test system: NCI-H2126
Outline: as §1

[5] = test system: EPLC-272H
Outline: as §1

[6] = test system: NCI-H2347
Outline: as §1

[7] = test system: HCC-15
Outline: as §1

[8] = test system: ABC-1
Outline: as §1

[9] = test system: NCI-H1993
Outline: as §1

[10] = test system: COR-L23
Outline: as §1

[11] = test system: SW 1573
Outline: as §1

[12] = test system: LU99A
Outline: as §1

[13] = test system: HOP-62
Outline: as §1

[14] = test system: LC-2-ad
Outline: as §1

[15] = test system: NCI-H1651
Outline: as §1

[16] = test system: NCI-H2023
Outline: as §1

[17] = test system: NCI-H1915
Outline: as §1

[18] = test system: NCI-H838
Outline: as §1

[19] = test system: NCI-H2085
Outline: as §1

[20] = test system: NCI-H1355
Outline: as §1

[21] = test system: HARA
Outline: as §1

[22] = test system: PC-14
Outline: as §1

Work on `COc1nc(C)cnc1NS(=O)(=O)c1cccnc1-c1ccc(-c2nnco2)cc1` [Zibotentan] + Cc1nc(Nc2ncc(C(=O)Nc3c(C)cccc3Cl)s2)cc(N2CCN(CCO)CC2)n1 [Dasatinib] (partner 0.075 µM) yielded a relative viability ([1]; first compound 0.08 µM) of 0.175, a relative viability ([1]; first compound 0.253 µM) of 0.152 and a relative viability ([1]; first compound 0.8 µM) of 0.151. It also gave a relative viability ([1]; first compound 2.53 µM) of 0.166, a relative viability ([2]; first compound 0.08 µM) of 0.49 and a relative viability ([2]; first compound 0.253 µM) of 0.418. It also gave a relative viability ([2]; first compound 0.8 µM) of 0.46, a relative viability ([2]; first compound 2.53 µM) of 0.468 and a relative viability ([3]; first compound 0.08 µM) of 0.394. For the same compound, the relative viability ([3]; first compound 0.253 µM) was 0.436, the relative viability ([3]; first compound 0.8 µM) was 0.475 and the relative viability ([3]; first compound 2.53 µM) was 0.469. It also gave a relative viability ([4]; first compound 0.08 µM) of 0.632, a relative viability ([4]; first compound 0.8 µM) of 0.53 and a relative viability ([4]; first compound 2.53 µM) of 0.685. It also gave a relative viability ([5]; first compound 0.08 µM) of 0.375, a relative viability ([5]; first compound 0.253 µM) of 0.287 and a relative viability ([5]; first compound 0.8 µM) of 0.331. The relative viability ([5]; first compound 2.53 µM) was 0.33, the relative viability ([6]; first compound 0.253 µM) was 0.294 and the relative viability ([6]; first compound 0.8 µM) was 0.298. The relative viability ([6]; first compound 2.53 µM) was 0.331, the relative viability ([7]; first compound 0.08 µM) was 0.601 and the relative viability ([7]; first compound 0.8 µM) was 0.512. It also gave a relative viability ([7]; first compound 2.53 µM) of 0.684, a relative viability ([8]; first compound 0.08 µM) of 0.568 and a relative viability ([8]; first compound 0.253 µM) of 0.572. The relative viability ([8]; first compound 0.8 µM) was 0.548, the relative viability ([8]; first compound 2.53 µM) was 0.556 and the relative viability ([9]; first compound 0.08 µM) was 0.565. The relative viability ([9]; first compound 0.253 µM) was 0.63, the relative viability ([9]; first compound 0.8 µM) was 0.481 and the relative viability ([9]; first compound 2.53 µM) was 0.741. For the same compound, the relative viability ([10]; first compound 0.08 µM) was 0.502, the relative viability ([10]; first compound 0.253 µM) was 0.485 and the relative viability ([10]; first compound 0.8 µM) was 0.488. It also gave a relative viability ([10]; first compound 2.53 µM) of 0.5, a relative viability ([11]; first compound 0.08 µM) of 0.565 and a relative viability ([11]; first compound 0.8 µM) of 0.537. It also gave a relative viability ([11]; first compound 2.53 µM) of 0.556, a relative viability ([12]; first compound 0.08 µM) of 0.712 and a relative viability ([12]; first compound 0.253 µM) of 0.694. The relative viability ([12]; first compound 0.8 µM) was 0.596, the relative viability ([12]; first compound 2.53 µM) was 0.487 and the relative viability ([13]; first compound 0.08 µM) was 0.706. The relative viability ([13]; first compound 0.253 µM) was 0.634, the relative viability ([13]; first compound 0.8 µM) was 0.719 and the relative viability ([13]; first compound 2.53 µM) was 0.758. It also gave a relative viability ([14]; first compound 0.08 µM) of 0.688, a relative viability ([14]; first compound 0.8 µM) of 0.625 and a relative viability ([14]; first compound 2.53 µM) of 0.511. For the same compound, the relative viability ([15]; first compound 0.08 µM) was 0.462, the relative viability ([15]; first compound 0.253 µM) was 0.318 and the relative viability ([15]; first compound 0.8 µM) was 0.445. The relative viability ([15]; first compound 2.53 µM) was 0.451, the relative viability ([16]; first compound 0.08 µM) was 0.568 and the relative viability ([16]; first compound 0.253 µM) was 0.339. The relative viability ([16]; first compound 0.8 µM) was 0.476, the relative viability ([16]; first compound 2.53 µM) was 0.64 and the relative viability ([17]; first compound 0.08 µM) was 0.382. It also gave a relative viability ([17]; first compound 0.253 µM) of 0.29, a relative viability ([17]; first compound 0.8 µM) of 0.336 and a relative viability ([17]; first compound 2.53 µM) of 0.29. It also gave a relative viability ([18]; first compound 0.08 µM) of 0.28, a relative viability ([18]; first compound 0.253 µM) of 0.233 and a relative viability ([18]; first compound 0.8 µM) of 0.283. The relative viability ([18]; first compound 2.53 µM) was 0.305, the relative viability ([19]; first compound 0.08 µM) was 0.24 and the relative viability ([19]; first compound 0.253 µM) was 0.227. The relative viability ([19]; first compound 0.8 µM) was 0.211, the relative viability ([19]; first compound 2.53 µM) was 0.213 and the relative viability ([20]; first compound 0.08 µM) was 0.691. The relative viability ([20]; first compound 0.253 µM) was 0.743, the relative viability ([20]; first compound 0.8 µM) was 0.718 and the relative viability ([20]; first compound 2.53 µM) was 0.832. For the same compound, the relative viability ([21]; first compound 0.08 µM) was 0.239, the relative viability ([21]; first compound 0.253 µM) was 0.227 and the relative viability ([21]; first compound 0.8 µM) was 0.24. It also gave a relative viability ([21]; first compound 2.53 µM) of 0.243, a relative viability ([22]; first compound 0.08 µM) of 0.26 and a relative viability ([22]; first compound 0.253 µM) of 0.172. The relative viability ([22]; first compound 0.8 µM) was 0.243 and the relative viability ([22]; first compound 2.53 µM) was 0.277.

Reference: the supplement of paper PMC10307832
